≈ marks a conversion by molar mass, not a printed value.
Experiments:
[1] = tested on: Endotoxin (LPS) from Salmonella abortus equi; assay: effect on endotoxin fatality (LPS-induced septic shock); type: in vivo, female NMRI mice; settings: 25 mg/kg i.p. at the same time as LPS 60 mg/kg i.p.; 72 hours; vs placebo control
Procedure: 2. Test for effect on endotoxin fatality
Individual injections of lipopolysaccharide (LPS), from gram-negative bacteria, lead via a series of various symptoms to septic shock, which usually turns out to be fatal. Endotoxin (LPS) from Salmonella abortus equi in a dose of 60 mg/kg i.p. leads to shock and to death with at most 72 h p.a. (the dose of 60 mg/kg corresponds to approximately 1.20 mg of LPS/animal).
The experimental animals used are female NMRI mice from the Hoechst AG/Hattersheim animal breeding unit having a body weight of 22 to 24 g.
The test substances administered intraperitoneally (i.p.) in an administration volume of 10 ml/kg at the same time as the LPS. The number of surviving animals after 72 hours' LPS administration is indicated in comparison to a placebo control. The number of tested animals per group is 5; dose 25 mg/kg.

[2] = tested on: isolated guinea pig trachea, agonist calcium ionophore A23187; assay: antagonist of calcium ionophore A23187-induced contraction of isolated guinea pig trachea; type: cell-based; settings: Cavia porcellus, 37° C., read-out: Anticontractile action (trachea), Ca ionophore: concentration range for dilatation corresponding to ED50 range
Source text: (§1) 3. Activity as antagonist of the contraction of isolated guinea pig trachea
(§2) The compounds of the formula I are used as antagonists of the contraction of isolated guinea pig trachea. The agonists employed were PGF2α (Upjohn, Germany), calcium ionophore A23187 (Calbiochem, Bad Soden, Germany), and substance P (American Peptide Comp., USA):
b) Calcium ionophore A23187 (Calbiochem, Bad Soden) acts by increased uptake of calcium ions, and an activation of all calcium-dependent signal cascades in the cell. Lipoxygenase inhibitors, in particular, and generally antiinflammatory substances show effects in this model.
(§3) Preparation of the organ sections and experimental procedure:
(§4) The guinea pig is sacrificed by means of terminal laughing gas anaesthesia. The trachea is exposed along its entire length and cut into 15 individual cartilage rings. 5 rings in each case are tied together to give a chain and fixed in the organ bath under a preload of 3 g. After an equilibration time of 45 minutes, a contraction is produced using the agonist. The antagonist (test preparation) is added cumulatively on the plateau of the maximum. Evaluation is carried out in % force change relative to the contraction maximum. The experimental procedure is carried out at 37° C.; the physiological nutrient solution used is a modified Krebs-Henseleit solution through which is bubbled 95% by volume of O2, 5% by volume of CO2.
(§5) Experimental animals: albino guinea pigs (Hattersheim Animal Breeding Institute, Kastengrund, Germany), weight: 200 to 300 g, sex male or female.
(§6) Vehicle: double-distilled water, ethanol or isopropanol; administration: into the organ bath number of administration: cumulative, in SP individual doses
(§7) All numerical values are indicated in the unit μg/ml and relate to the concentration range of the tested compound of the formula I according to the invention (see example numbers in Table 1) which is necessary in order to cause a dilatation which corresponds to the ED50 range.

[3] = tested on: isolated guinea pig trachea, agonist PGF2α; assay: antagonist of PGF2α-induced contraction of isolated guinea pig trachea; type: cell-based; settings: Cavia porcellus, 37° C., read-out: Anticontractile action (trachea), PGF2α: concentration range for dilatation corresponding to ED50 range
Source text: as §1, §2
Inhibition of contractions which are induced by this cyclooxygenase product is only possible by competitive antagonism at the receptor or of the subsequent signal pathway.
as §3, §4, §5, §6, §7

[4] = tested on: isolated guinea pig lung strips, Platelet activating factor (PAF); assay: antagonist of PAF-induced contraction of isolated guinea pig lung strips; type: cell-based; settings: Cavia porcellus, read-out: Anticontractile action (lung), PAF: concentration range corresponding to the IC50 value
Source text: (§8) 4. Activity as an antagonist of the contraction of isolated guinea pig lung strips
(§9) The test carried out is based on the same principle as the test indicated in the pharmacological test 3; however, lung strips are used here.
as §3
(§10) The guinea pig is sacrificed under laughing gas anaesthesia. The entire pulmonary tract is exposed starting from the trachea. The lobes of the lung are cut in a circular fashion such that 3 mm wide strips are formed. The strips of the upper lobes are divided in order to obtain a total of six approximately equal size strips. The strips are suspended in the organ baths under a preload of 4 g. The nutrient solutions used are modified Krebs Henseleit solutions. When using "Platelet activating factor" (PAF) as an […], the composition of this solution corresponds to that for the agonist SP in "Test 3"; for the agonist LTD4 a Krebs Henseleit solution as in the case of the agonist KCl (Test 3) is used. 95% by volume O2, 5% by volume CO2 is used for bubbling through the bath; the bath temperature is 37° C. The experimental procedure is carried out in a therapeutically cumulative methodology, using the dosage graduations 1, 3, 6 and 10 μg/ml.
(§11) The experimental animals, organ bath, vehicles and manner of administration correspond to that stated in pharmacological test 3.
(§12) All numerical values are indicated in the unit μg/ml and relate to the concentration range of tested compound of the formula I (see example numbers in Table 1) which is necessary in order to cause a contraction which corresponds to the IC50 value.

[5] = tested on: isolated guinea pig trachea, agonist substance P; assay: antagonist of substance P-induced contraction of isolated guinea pig trachea; type: cell-based; settings: Cavia porcellus, individual doses, 37° C., read-out: Anticontractile action (trachea), SP antagonism: concentration range for dilatation corresponding to ED50 range
Source text: as §1, §2
The antagonism is possible on the one hand due to specific receptor antagonists, and on the other hand also due to inhibition of the subsequent signal pathway. Preparations which directly or indirectly increase the intracellular concentration of cyclic nucleotides in particular show spasmolytic properties here.
as §3, §4, §5, §6, §7

[6] = tested on: phosphodiesterase III; assay: inhibition of phosphodiesterase III activity; type: biochemical; settings: at 100 μM
Procedure: 5. Inhibition of phosphodiesterase III activity
The test is carried out using phosphodiesterase from Boehringer Mannheim (Mannheim, Germany), Order No. 108 243 according to the method of T. SAEKI, I. SAITO, Biochem. Pharm. 46, No. 5, […], pages 833-839.
All numerical values are indicated in % inhibition of the enzyme activity at 100 μM of the corresponding compound of the formula I.

[7] = tested on: isolated guinea pig lung strips, leukotriene D4 (LTD4); assay: antagonist of LTD4-induced contraction of isolated guinea pig lung strips; type: cell-based; settings: Cavia porcellus, read-out: Anticontractile action (lung), LTD4: concentration range corresponding to the IC50 value
Source text: as §8, §9, §3, §10, §11, §12

[8] = tested on: muscle group (gastrocnemius, plantaris and soleus) of the immobilized right rear extremity; assay: rat muscle function test: direct electrical stimulation of muscle group after 3 weeks' immobilization; type: in vivo, male Wistar rats; settings: oral, 1x per day for 3 weeks, as a rule 25 mg/kg, ≤-12% classified as active; for Force (force under the contraction curve, right/left difference): isometric stimulation, control difference approx. 25%; for Work (performed work, right/left difference): isotonic stimulation, control approx. -25%
Source text: (§13) 1. Activity in the rat muscle function test
(§14) Male Wistar rats (body weight about 300 g) were kept under standard conditions with feed and water ad libitum. The right rear extremity was immobilized by fitting a kind of "shoe" to the animals under short-term anaesthesia. Two ergonomically fitted halves of the "shoe" were cast from a liquid plastic material which is also used for the production of dental prostheses, these were put onto the animal under brief anaesthesia and joined with the aid of a wire. The material is light but hard, so that the animals cannot gnaw the material, and the "shoe" can be opened at any time to examine the condition of the immobilized extremity. The two halves were moreover padded out with chamois leather in order to avoid compressions and possible injuries due to rubbing. The system also has the advantage that the angle of immobilization is standardized in all animals; this would not be possible with a plaster cast. The chosen angle allows the animals to take up a normal sitting position despite the "shoe" and also to carry the body weight using this extremity. Only complete stretching or bending of the leg is impossible.
(§15) After 3 weeks' immobilization of the right rear extremity and simultaneous oral administration of test preparations (1× per day using a stomach tube; as a rule 25 mg/kg of body weight, in carboxymethylcellulose, the animals were weighed and anaesthetized with pentobarbital (35 mg/kg i.p.). Functional parameters were measured during direct electrical stimulation of a muscle group (gastrocnemius, plantaris and soleus). This muscle group, merely called "muscle" in the following, was exposed at the ankle tendon and tied to a force transducer via the tendon.
To determine the contractile force, the muscles were stimulated isometrically, i.e. a preload of 0.5N was applied and the muscle was stimulated by means of a series of electrical pulses, which led to a maximum contraction, every 0.7 sec for 80 msec for a period of 15 min. […] The area under this contraction curve was evaluated and the difference in percent between the right atrophic and left normal muscle compared (force under the contraction curve as difference in percent (Δ%)). The difference in the control group is approximately 25%.
An isotonic muscle stimulation was used to determine the performed work of the muscle over time. In this type of measurement, the shortening of the muscle during contraction is used as a basis. To this end, a preload which corresponds to the body weight was applied to the muscles. A series of stimulation pulses (80 msec) were triggered every 3 sec and the muscle was stimulated for 15 min. The data (contraction force and distance travelled) were converted to the work performed in the unit J using an automated system. The difference in the work performed between the immobilized atrophic and the normal muscle in the control animals was approximately -25%.
Values which are positive indicate that the functional parameters of the immobilized muscle were better than those of the contralateral normal muscle.

[9] = tested on: soleus muscle; assay: rat muscle function test: muscle weight (atrophy of immobilized extremity); type: in vivo, male Wistar rats; settings: oral, 1x per day for 3 weeks, as a rule 25 mg/kg, difference ≤25% classified as an effect
Source text: as §13, §14
In spite of this, a significant decrease in the skeletal muscle mass (atrophy) of the immobilized extremity occurred, to be precise up to -35% in comparison with the contralateral nonimmobilized rear extremity. As the soleus muscle was the most severely affected, the changes in muscle weight after administration of preparation shown in Table 1 relate to this muscle. A difference of ≤25% between the right immobilized and left non-immobilized rear extremity was classified as an effect.
as §15

SMILES	Inhibition of mortality [1]	EC50 [2]	EC50 [3]	IC50 [4]	EC50 [5]	PDE III Inhibition [6]	IC50 [7]	Force (force under the contraction curve, right/left difference) [8]	Work (performed work, right/left difference) [8]	Muscle weight (right/left difference) [9]
CCCCn1cnc2c1c(=O)n(CCCP(=O)(OCC)OCC)c(=O)n2CCCC [Example 40, Diethyl [3-(3,7-dibutylxanthin-1-yl)propyl]phosphonate]	100%	–	–	–	–	–	–	–	–	–
CCOP(=O)(CCCCn1cnc2c1c(=O)n(CC)c(=O)n2C)OCC [Example 4, Diethyl [4-(1-ethyl-3-methylxanthin-7-yl)butyl]phosphonate]	–	> 10 µg/mL	> 10 µg/mL	1 to 3 µg/mL (≈ 2.59 to 7.76 µM)	10 to 30 µg/mL (≈ 25.9 to 77.6 µM)	–	–	–	–	–
CCOP(=O)(CCCn1c(=O)c2c(ncn2CCOC)n(C)c1=O)OCC [Example 35, Diethyl [3-(7-methoxyethyl-3-methylxanthin-1-yl)propyl]phosphonate]	–	> 10 µg/mL	–	3 to 6 µg/mL (≈ 7.46 to 14.9 µM)	30 to 60 µg/mL (≈ 74.6 to 149 µM)	–	–	–	–	–
CCCn1cnc2c1c(=O)n(CCCP(=O)(OCC)OCC)c(=O)n2C1CC1 [Example 39]	100%	–	–	–	–	65%	3 to 6 µg/mL (≈ 7.27 to 14.5 µM)	–	–	–
CCOP(=O)(CCCCn1c(=O)c2c(ncn2Cc2ccccc2)n(C)c1=O)OCC [Example 23, Diethyl [4-(7-benzyl-3-methylxanthin-1-yl)butyl]phosphonate]	–	> 10 µg/mL	> 10 µg/mL	1 to 3 µg/mL (≈ 2.23 to 6.69 µM)	10 to 30 µg/mL (≈ 22.3 to 66.9 µM)	65%	1 to 3 µg/mL (≈ 2.23 to 6.69 µM)	–	–	–
CCOP(=O)(CCCn1c(=O)c2c(ncn2CC)n(C)c1=O)OCC [Example 34, Diethyl [3-(7-ethyl-3-methylxanthin-1-yl)propyl]phosphonate]	60%	–	–	–	–	82%	–	-5 Δ %	-11 Δ %	–
CCOP(=O)(CCCCn1c(=O)c2c(ncn2CC)n(C)c1=O)OCC [Example 30, Diethyl [4-(7-ethyl-3-methylxanthin-1-yl)butyl]phosphonate]	–	10 µg/mL (≈ 25.9 µM)	> 10 µg/mL	3 to 6 µg/mL (≈ 7.76 to 15.5 µM)	10 to 30 µg/mL (≈ 25.9 to 77.6 µM)	–	6 to 10 µg/mL (≈ 15.5 to 25.9 µM)	+2 Δ %	+5 Δ %	0 Δ %
CCCn1cnc2c1c(=O)n(CCCCP(=O)(OCC)OCC)c(=O)n2CC [Example 38, Diethyl [4-(3-ethyl-7-propylxanthin-1-yl)butyl]phosphonate]	60%	10 µg/mL (≈ 24.1 µM)	> 10 µg/mL	1 to 3 µg/mL (≈ 2.41 to 7.24 µM)	10 to 30 µg/mL (≈ 24.1 to 72.4 µM)	–	–	-10 Δ %	-3 Δ %	–
CCOP(=O)(CCCCn1c(=O)c2[nH]cnc2n(C)c1=O)OCC [Example 24, Diethyl [4-(3-methylxanthin-1-yl)-butyl]phosphonate]	100%	–	> 10 µg/mL	–	30 to 60 µg/mL (≈ 83.7 to 167 µM)	–	–	+6 Δ %	-5 Δ %	-20 Δ %

From patent US5728686A, “Alkylxanthine phosphonates and alkylxanthine phosphine oxides and their use as pharmaceuticals” (Hoechst Aktiengesellschaft, priority 1996, dated 1998)
